Row | SMILES | melting point [°C]
1 | CN(C)c1ncnc2c1c(-c1ccc([N+](=O)[O-])o1)nn2C | 161
2 | O=C(NCC12CC3CC(CC(C3)C1)C2)c1cccc(O)c1Cl | 234 to 235
3 | CC(C)COc1ccccc1OCCOS(C)(=O)=O | 59 to 61
4 | CC(=O)NCCSc1c(Cl)cc(N)c(C)c1N | 111
5 | COC1CC2(C)C(CCC3C4CC(C)C(C(C)=O)C4(C)CC(=O)C32)CC1O (stereo unspecified) | 180 to 182
6 | CS(=O)(=O)Nc1ccc(C(=O)O)c(Cl)c1 | 256 to 258
7 | C=CCC1(C(C)CC(=O)OCC)C(=O)NC(=O)NC1=O (stereo unspecified) | 114
8 | CC(C)C(NC(=O)OCc1ccccc1)C(=O)NC(Cc1ccccc1)C(O)C(O)C(Cc1ccccc1)NC(=O)C(NC(=O)OCc1ccccc1)C(C)C (stereo unspecified) | 231 to 232
9 | CCCc1cccc(N(CC(=O)OC)NC(=O)NC)c1 | 76 to 77
10 | CCOC(=O)c1cc2n(c1)CN(C(=O)OCC)c1ccc(Br)cc1-2 | 161 to 163
11 | Cc1c(N2C(=O)C[C@H](O)[C@@H]2C)ccc(C#N)c1Cl | 172 to 173
12 | COc1ccc2c(c1)C(N(CC(=O)O)C(=O)C(C)CSC(C)=O)CC2 (stereo unspecified) | 106 to 110
13 | O=C1NCCN1Cc1ccc(Cl)c(Cl)c1 | 129 to 130
14 | CCc1ccc(N2CCN(c3c(C)c(C)c4c(c3C)CC(C)(C)O4)CC2)cc1 | 152 to 155
15 | O=C(NCC(S)CO)OCc1ccc([N+](=O)[O-])cc1 (stereo unspecified) | 65 to 67
16 | CCN(CC)CCNC(=O)c1cc(Cl)c(N)cc1OCCCN | 119 to 121
17 | COC(=O)c1cnc(Cl)c(OC)c1 | 83 to 85
18 | CC(C)(C)c1ccc(Cl)c(C(=O)O)c1 | 99 to 103
19 | CCCc1c(OCCCOc2ccc(C(=O)CCl)c(OC)c2CCC)ccc2c1OC(C(=O)OC)CC2 (stereo unspecified) | 47 to 49
20 | COC(=O)c1c[nH]c(C(=O)c2cc(OC)cc(OC)c2)c1 | 115 to 120
21 | COc1c(Cl)cc2c(N)nc(N3CCN(C(=O)C4CCCO4)CC3)nc2c1OC (stereo unspecified) | 192 to 193
22 | c1cc(OCC2CCCCC2)ccc1Cc1nnn[nH]1 | 156 to 158
23 | CCOc1cc(Oc2ccc(C(F)(F)F)cn2)ccc1CCCOc1nn(CC)cc1CC(=O)O | 82 to 83

Row | SMILES | melting point [°C]
24 | Cc1cccc(Nc2cc(Nc3ccc(OCC(O)CN(C)C)cc3)ncn2)c1 (stereo unspecified) | 192 to 195
25 | C#Cc1ncn2c1CN(C)C(=O)c1c(Cl)cccc1-2 | 194 to 195
26 | CCCCOc1nc(N)c2[nH]c(=O)n(CCCN(CCCN3CCOCC3)Cc3cccc(CC(=O)OC)c3)c2n1 | 153
27 | COCCCNC(=O)Nc1ccc(N(C)C)cc1C(=O)NCC1CCN(C(c2ccccc2)c2ccccc2)CC1 | 191 to 193
28 | CNc1cc(F)c(C=O)cc1F | 133 to 138
29 | CC(=O)N1CCNC1=Nc1ccc(Cl)cc1Cl | 168 to 169
30 | CN(C)C1(c2ccccc2)CCC(CC(=O)N2CCC(c3c[nH]c4ccccc34)C2)CC1 (stereo unspecified) | 98 to 100
31 | CC(c1c[nH]cn1)c1cccc2c1OC(C)(C)OC2 (stereo unspecified) | 118
32 | CCOc1nc(C2CC2)nc(OC)c1C=O | 93 to 94
33 | COc1ccc(C(C)(C)OC)cc1CN[C@H]1C2CCN(CC2)[C@H]1C(c1ccccc1)c1ccccc1 | 127
34 | CCCc1nc(N)c(C(=O)OC)[nH]1 | 133 to 136
35 | N#Cc1ccc(OCCCCCCOc2cccc(-c3cc4cc(C#N)ccc4o3)c2)cc1 | 134 to 136
36 | CC(=O)NC1CCC(=O)c2sccc21 (stereo unspecified) | 160 to 164
37 | CCCCC(C)C(O)C=Cc1ccc(OCc2ccccc2)c(OCc2ccccc2)c1 (stereo unspecified) | 77 to 78
38 | CC(=O)NC1(c2ccc(C(C)O)cc2)CC1 (stereo unspecified) | 114 to 116
39 | CCCOc1ccc(-c2ccc3c(c2)C=C(C(=O)Nc2ccc(CN(C)C4CCOCC4)cc2)CCS3(=O)=O)cc1OCCC | 206 to 208
40 | CCCCCCCCCOC(=O)Oc1ccc(C(=O)O)cc1 | 118 to 120
41 | CCOC(=O)c1ncn2c1CN=C(c1ccccc1Cl)c1cc([N+](=O)[O-])ccc1-2 | 250 to 252
42 | CC(C)(O)CCCCCc1cccc(CCc2cc(O)cc(O)c2)c1 | 102 to 103
43 | N#Cc1cccc(C(=O)N[C@H]2C[C@H](C(=O)O)Nc3cc(Cl)cc(Cl)c32)c1 (relative stereo) | 229 to 231
44 | CCC(OC)C(=O)Nc1ccc(C2=NNC(=O)CC2C)cc1 (stereo unspecified) | 151 to 152
45 | O=C(CCCCCN1CCC(c2cccc(C(F)(F)F)c2)CC1)N1Cc2ccccc2C1 | 71
46 | CCOC(=O)c1cc(=O)c2cc(OC)cc(Br)c2o1 | 159 to 161

More lines, now with the values ahead:

Row | melting point [°C] | SMILES
47 | 230 to 231 | CC(C)(C)c1ccc2oc(-c3ccc(C=Cc4ccc(-n5ncc(-c6ccccc6)n5)cc4)cc3)nc2c1
48 | 62 to 66 | CCOC(=O)c1cnc(S(=O)(=O)Cc2ccccc2)n1-c1c(CC)cccc1CC
49 | 233 | Nc1cc(-c2cccnc2)nc(-c2ccco2)n1
50 | 218 | O=C(c1ccc(F)cc1)C1CCN(C2Sc3ccccc3NC2=O)CC1 (stereo unspecified)
51 | 160 to 162 | O=C(Oc1ccccc1)c1ccc2c(c1)S(=O)(=O)NCN2C1CC1
52 | 94 | O=C1CCC(c2ccc(-c3ccc([N+](=O)[O-])cc3F)cc2)O1 (stereo unspecified)
53 | 264 to 266 | COc1ccc(-c2csc(Nc3ncccc3C)n2)cc1OC
54 | 53 to 56 | Oc1c(CC2CCCCC2)ccc2ccccc12
55 | 87 to 89 | ClC1c2ccccc2-c2ccccc21
56 | 276 to 277 | Cc1nc2ncc(C(=O)NCc3ccc(Cl)cc3)c(O)c2cc1I
57 | 155 to 156 | Cc1oc(-c2ccccc2)nc1COc1ccc(Cn2cc(CCC(=O)O)c(-c3ccccn3)c2)cc1
58 | 192 to 195 | CC(C)n1cc(-c2ccc(NC(=O)c3ccccc3)cc2)c2c(N)ncnc21
59 | 169 to 171 | CC(C(=O)OC(C)(C)C)c1ccc(N2Cc3ccc(Cl)cc3C2=O)cc1 (stereo unspecified)
60 | 103 to 105 | COc1ccc(C(=O)Oc2ccccc2)nc1C
61 | 135 to 137 | CCC(CC)C(NS(=O)(=O)c1ccc(C#N)cc1)c1ccnn1-c1ccccc1 (stereo unspecified)
62 | 120 | NC(=O)COc1ccc(OCc2ccccc2)cc1OCc1ccccc1
63 | 243 to 245 | N#CSc1cc(Cl)c(Cl)c2sc(NC(=O)Nc3ccc(Br)cc3)nc12
64 | 259 to 262 | O=c1cc(-c2ccc(O)c(Cl)c2)oc2ncccc12
65 | 202 | O=C(c1cccc(F)c1)N1CCc2cc(S(=O)(=O)N3CC(c4ccccc4)NC3=O)ccc21 (stereo unspecified)
66 | 232 | O=C(O)CNC(=O)c1ncc2c(Cl)cccc2c1O
67 | 229 to 232 | Oc1ccc2c(c1)COc1c-2cc2ccc(O)cc2c1-c1ccc(F)cc1
68 | 106 to 107 | NC(Cc1ccccc1)C(O)C(N)Cc1ccccc1 (stereo unspecified)
69 | 214 to 216 | O=C1CCc2c(-c3ccncc3)sc(-c3cccnc3)c21
70 | 88 to 90 | CC(=O)Oc1c(Sc2ccccc2)sc2ccccc12
71 | 162 to 164 | FC(F)C(F)(F)Sc1nc(-c2cccs2)c(-c2cccs2)[nH]1
72 | 240 to 241 | CCn1cc2c(n1)c(N)nc1ccccc12
73 | 123 to 125 | CC(C)c1nc(-c2cccs2)cc(-c2ccc(F)cc2)c1C=O
74 | 36 to 37 | N#Cc1ccccc1C1=CC2CC(=O)CC2C1 (stereo unspecified)

Row | melting point [°C] | SMILES
75 | 138 to 140 | CCN(C(=O)N(C)C)c1ccccc1-c1ccc2nnc(C)n2n1
76 | 62 to 63 | CC1(c2ccccc2)SC(=NO)N(Nc2ccccc2)C1=O (stereo unspecified)
77 | 281 to 284 | N#Cc1ccc(N(Cc2ccc3cc(O)ccc3c2)n2cnnc2)cc1
78 | 282 to 284 | O=C(O)c1cn(-c2ccc(F)cc2)c2c(F)c(N3CCCC3)c(F)cc2c1=O
79 | 230 to 231 | CC(C)(C)OC(=O)NC(Cc1ccccc1)C(=O)NC(Cc1ccc(C(F)(F)F)cc1)C(O)c1ccc(F)cc1 (mixture of isomers)
80 | 202 to 204 | COc1ccc2c(c1)c(CC(=O)O)c(C)n2-c1ncnc2cc(Cl)ccc12
81 | 208 | CCc1ccnc(C(=O)c2[nH]c3ccc(Cl)cc3c2CC(=O)O)c1F
82 | 84 to 86 | O=[N+]([O-])c1ccc(Oc2ccccc2)nc1
83 | 63 to 65 | Fc1ccc(-c2ccccc2)c(F)c1
84 | 124 | N#Cc1cccc2c1CC(Br)C2=O (stereo unspecified)
85 | 141 to 142 | CCOC(=O)Cc1ccc(NC(=O)C(COc2ccccc2Cl)NS(=O)(=O)c2ccc(Cl)cc2)cc1 (racemic)
86 | 180 | O=C1Nc2ccccc2SCC1c1ccc(Cl)cc1 (stereo unspecified)
87 | 234 to 237 | O=C(O)c1nc2n(n1)-c1cccnc1N(c1ccc(Cl)cc1)C2
88 | 125 to 127 | CN(C)Cc1cnn(C)c1-c1ccc(Cl)cc1C(O)c1ccccc1F (stereo unspecified)
89 | 262 to 264 | NC(=O)COc1c(-c2ccccc2)c(=O)[nH]c2cc(Cl)ccc12
90 | 140 to 141 | COC(=O)c1ccc(NC(=O)CCc2c(C)noc2-c2ccccc2)cc1
91 | 183 | NC(=O)c1nc(-c2ccc(Oc3ccc(F)cc3)c(F)c2)cs1
92 | 191 to 194 | CCCCN(CCCC)c1ccc(C=CC2=C(C#N)C(=C(C#N)C#N)OC2(c2ccccc2)C(F)(F)F)c(OC)c1 (stereo unspecified)
93 | 216 | CC1CC(=O)NN=C1c1ccc2nc(C3CC3)n(Cc3ccc(-c4ccccc4-c4nnn[nH]4)cc3)c2c1 (stereo unspecified)
94 | 144 to 145 | CC(=O)Nc1nc(-c2ccc(SCOC(C)=O)cc2)cs1
95 | 56 | O=Cc1ccc2cccnc2c1
96 | 122 to 125 | CNCCc1cccc(N2C(=O)N(c3c(Cl)cccc3Cl)Cc3cnc(Nc4ccccc4)nc32)c1
97 | 124 to 126 | CCCc1nc(C(=O)OC)c(C(=O)OC)n1Cc1ccc(-c2ccccc2-c2nnn[nH]2)cc1
98 | 173 to 174 | CC(=O)Nc1cccc(Sc2c(Cc3cccc4ccccc34)sc3c2c(=O)n(C)c(=O)n3CC(C)C)c1
99 | 212 to 214 | Oc1ccc2c(-c3ccccc3F)noc2c1I
100 | 128 | O=C(Nc1ccccc1)O[C@@H]1CN=C(c2ccc(OC(F)(F)F)cc2)O[C@H]1c1ccccc1 (racemic)
101 | 120 to 121 | N#Cc1cc(Cl)nc(SCc2ccc3ccccc3c2)n1
